15 compounds from patent US9353067B2, “Heterocyclic compounds and uses thereof in the treatment of sexual disorders” (ATIR Holding S.A., priority 2011, dated 2016) can be followed below.

Usually inhibition stands for the change of the read-out against control, counted positive when it falls. A low value points to a response near the control. For orientation: IC50 means the concentration at which inhibition is half-maximal.

Data set [1] deals with PARP-1 (Homo sapiens (Human), UniProt P09874). The data set can be described thus: Universal Chemiluminescent PARP Assay. Type of data set: biochemical. The settings on record: average results from two assays. As to the method: In addition, R-55 and its hydrochloride salt were assayed for PARP (poly(ADP-ribose)polymerase) inhibitory activity, as some quinazolinone derivatives, particularly derivatives comprising quinazolinone linked via a three-carbon moiety to substituted pyridinyl and piperazinyl moieties, have been identified as potent PARP inhibitors [U.S. Patent Application Publication No. 2004/0077667; Iwashita et al., FEBS Lett 579:1389-1393(2005); Hattori et al., J Med Chem 47:4151-4154(2004)]. PARP plays a natural role in repair of DNA damage, and inhibition of PARP may lead to undesirable side effects in any treatment of a sexual disorder.
Inhibition of PARP-1 was assayed using a Universal Chemiluminescent PARP Assay (Trevigen, Inc.).
The tested compounds were diluted from 2.1 mg of powder in 25 μl of DMSO. The tested compounds were diluted to 100 μM in 1% DMSO/99% ethanol. 3-Aminobenzamide (3-AB), a commercially available weak PARP inhibitor, was used as a positive control. The activity of PARP was quantified as relative light units (RLU). Each of the tested compounds was assayed twice.
In Assay 1, the 100 μM stock solution was diluted to 40 μM in 1×PARP buffer. The compounds were then serially diluted down to 0.4 μM. Each tested compound was
further diluted 1:4 during the assay, so the final concentrations ranged from 10 μM to 0.1 μM.
In Assay 2, the 100 μM stock was added to 1×PARP buffer to prepare samples with concentrations ranging from 40 μM to 2 μM. A 10 μM stock solution was added to 1×PARP buffer to prepare samples with concentrations of 1 μM and 0.4 μM. Each tested compound was further diluted 1:4 during the assay, so the final concentrations ranged from 10 μM to 0.1 μM.

The nature of data set [2]: Hydrolysis (half-life) of esterified derivatives of R-55 in rat plasma. Type of data set: in vitro ADME. The settings on record: 37° C.; for half-life at 0.19 mg/ml: fresh rat plasma, hydrolysis of ester to R-55, rat plasma, read-out: T1/2 in rat plasma; for % L-207 (hydrolysis of L-207 to R-55): rat plasma. As to the method:
(§1) 50 μl of dimethyl sulfoxide containing 0.2 mg of the tested derivative was added to 1 ml of fresh plasma (human or rat) in a sterile Eppendorf tube. The samples were then incubated at 37° C., and 100 μl samples were removed at various times, up to 120 minutes after incubation. The plasma samples were immediately added to 1 ml acetonitrile. After vigorous mixing by vortex, the samples were centrifuged for 10 minutes at 2000 rotations per minute at 4° C. 0.95 ml of the supernatant was then removed and stored at −20° C. until determination of the concentrations of R-55 and its esterified derivative by LCMS analysis.

Data set [3] is described as follows: Hydrolysis (half-life) of esterified derivatives of R-55 in human plasma. Type of data set: in vitro ADME. The conditions noted are these: for half-life at 0.19 mg/ml: fresh human plasma, hydrolysis of ester to R-55, human plasma, read-out: T1/2 in human plasma; for half-life at 0.19 mg/ml / % L-207 (hydrolysis of L-207 to R-55): 37° C.; for rate of hydrolysis (in words): human and rat plasma, comparison of acyl moieties; for % L-207 (hydrolysis of L-207 to R-55): human plasma. As to the method: as §1

A short description of data set [4]: Solubility of L-207 in solvents. The class given is physicochemical. The source says: The compound was soluble in dimethylformamide, dimethyl sulfoxide, tetrahydrofuran, chloroform, dichloromethane, and HCl in diethyl ether, and non-soluble in water.
The target of data set [5] is D4.4 type dopamine receptor (Homo sapiens (Human), UniProt P21917). The data set can be described thus: Competitive binding to D4.4 receptor ([3H]-YM-09151-2). The conditions noted are these: human recombinant receptor in CHO cells, [3H]-YM-09151-2 0.3 nM. As to the method: R-55 (which comprises a 3-hydroxyphenyl moiety) and its isomers L-221 (comprising a 4-hydroxyphenyl moiety) and L-238 (comprising a 2-hydroxyphenyl moiety) were assayed for competitive binding to D2 SHORT and D4.4 type dopamine receptors, in order to assess their efficacy for treating sexual disorders. Both receptor types are expressed as human recombinant proteins in CHO cells, as described, for example, in Jarvis et al. (1973); Van Tol et al. (1991) and Van Tol et al. (1992).
Determination of binding to D4.4 receptor was performed using [^3H]-YM-09151-2 (70-87 Ci/mmol, 0.3 nM), as a radioligand, in the presence of various concentrations of the tested compound. Reactions were carried out in 50 mM TRIS-HCl (pH 7.4) containing 5 mM MgCl2, 5 mM EDTA, 5 mM KCl and 1.5 mM CaCl2, for 60 minutes at 22° C. The reaction was terminated by rapid vacuum filtration onto glass fiber filters. Radioactivity trapped onto the filters was determined (counted) and compared to control values in order to accurately evaluate any interaction of the tested compound(s) with the cloned dopamine D4.4 binding site.

PARP-1, sequence (P09874 whole entry): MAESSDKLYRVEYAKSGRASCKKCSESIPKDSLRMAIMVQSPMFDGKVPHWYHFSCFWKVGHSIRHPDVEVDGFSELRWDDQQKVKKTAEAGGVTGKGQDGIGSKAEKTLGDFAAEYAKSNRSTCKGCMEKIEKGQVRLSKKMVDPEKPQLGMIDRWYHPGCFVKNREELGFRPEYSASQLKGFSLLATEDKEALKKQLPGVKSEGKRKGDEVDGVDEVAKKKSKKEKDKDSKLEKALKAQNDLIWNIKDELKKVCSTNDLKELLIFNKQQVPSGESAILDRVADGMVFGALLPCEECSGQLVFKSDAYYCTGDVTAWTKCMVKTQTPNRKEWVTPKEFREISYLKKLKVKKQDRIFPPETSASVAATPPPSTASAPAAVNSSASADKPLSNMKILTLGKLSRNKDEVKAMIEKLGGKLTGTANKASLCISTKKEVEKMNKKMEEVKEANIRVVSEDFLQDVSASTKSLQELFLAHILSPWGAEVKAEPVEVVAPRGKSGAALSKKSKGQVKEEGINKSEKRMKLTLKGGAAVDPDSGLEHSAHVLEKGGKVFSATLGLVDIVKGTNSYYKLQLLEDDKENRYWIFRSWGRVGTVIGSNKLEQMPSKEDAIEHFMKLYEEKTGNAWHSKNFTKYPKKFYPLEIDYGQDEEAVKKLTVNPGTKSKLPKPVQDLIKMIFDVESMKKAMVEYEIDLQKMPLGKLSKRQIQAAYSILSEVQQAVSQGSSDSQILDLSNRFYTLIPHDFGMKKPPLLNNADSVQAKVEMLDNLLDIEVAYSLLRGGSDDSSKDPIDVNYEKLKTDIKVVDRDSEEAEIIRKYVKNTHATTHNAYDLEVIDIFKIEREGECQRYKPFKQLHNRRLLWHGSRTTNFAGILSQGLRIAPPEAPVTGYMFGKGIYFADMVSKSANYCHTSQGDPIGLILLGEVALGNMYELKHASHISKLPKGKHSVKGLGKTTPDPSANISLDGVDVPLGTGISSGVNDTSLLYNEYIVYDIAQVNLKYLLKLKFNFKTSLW
D4.4 type dopamine receptor, sequence (P21917 whole entry): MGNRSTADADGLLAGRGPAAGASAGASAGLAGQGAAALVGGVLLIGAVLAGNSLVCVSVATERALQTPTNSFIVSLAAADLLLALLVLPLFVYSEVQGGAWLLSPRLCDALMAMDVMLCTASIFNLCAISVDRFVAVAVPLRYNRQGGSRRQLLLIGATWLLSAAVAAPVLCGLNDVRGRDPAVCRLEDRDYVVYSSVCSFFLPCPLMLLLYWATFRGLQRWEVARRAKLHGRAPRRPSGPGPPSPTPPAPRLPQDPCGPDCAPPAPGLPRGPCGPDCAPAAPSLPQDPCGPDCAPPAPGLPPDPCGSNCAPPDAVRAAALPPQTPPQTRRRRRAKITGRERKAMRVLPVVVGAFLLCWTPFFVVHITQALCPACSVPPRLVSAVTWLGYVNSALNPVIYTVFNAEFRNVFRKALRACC

In data set [1] (5 μM), `NC(=O)c1cccc(N)c1` [Compound 3-AB, 3-Aminobenzamide, reference compound] yielded an inhibition at 5 µM of 21%. Besides, the inhibition at 10 µM in data set [1] (10 μM) was determined as 40%.
Take `CCC(=O)Oc1cccc(N2CCN(Cc3nc4ccccc4c(=O)[nH]3)CC2)c1` [Compound L-128]: in data set [2], the half-life at 0.19 mg/ml is 0.31 min. In data set [3], the half-life at 0.19 mg/ml was 10 min and the “rate of hydrolysis (in words)” value is recorded as “relatively rapid hydrolysis”.
The like results for `COc1ccc(C(=O)Oc2cccc(N3CCN(Cc4nc5ccccc5c(=O)[nH]4)CC3)c2)cc1` [Compound L-162] were, in that order, 54 min, 377 min and “slower hydrolysis than exhibited by the corresponding non-substituted aryl”.
The like results for `Cc1ccc(S(=O)(=O)Oc2cccc(N3CCN(Cc4nc5ccccc5c(=O)[nH]4)CC3)c2)cc1` [Compound L-163] were, in that order, over 1000 min, over 1000 min and “considerably slower hydrolysis than carboxyl esters”.
As for `CS(=O)(=O)Oc1cccc(N2CCN(Cc3nc4ccccc4c(=O)[nH]3)CC2)c1` [Compound L-164], the half-life at 0.19 mg/ml in data set [2] is over 1000 min. In data set [3], the half-life at 0.19 mg/ml was over 1000 min and the “rate of hydrolysis (in words)” value was “considerably slower hydrolysis than carboxyl esters”.
Consider `N#Cc1cccc(C(=O)Oc2cccc(N3CCN(Cc4nc5ccccc5c(=O)[nH]4)CC3)c2)c1` [Compound L-166], for which the half-life at 0.19 mg/ml in data set [2] amounted to 7.1 min; in data set [3] it was 480 min.
As for `O=C(Oc1cccc(N2CCN(Cc3nc4ccccc4c(=O)[nH]3)CC2)c1)C12CC3CC(CC(C3)C1)C2` [Compound L-167], the half-life at 0.19 mg/ml in data set [2] was 58 min. Also, in data set [3], the half-life at 0.19 mg/ml stood at 750 min and the “rate of hydrolysis (in words)” value is given as “relatively slow hydrolysis”.
As to `O=C(Oc1cccc(N2CCN(Cc3nc4ccccc4c(=O)[nH]3)CC2)c1)C1CCCCC1` [Compound L-169], in data set [2], the half-life at 0.19 mg/ml was 4.7 min. Also, in data set [3], the half-life at 0.19 mg/ml was found to be 41 min and the “rate of hydrolysis (in words)” value was “relatively rapid hydrolysis”.
With `COc1ccc(CC(=O)Oc2cccc(N3CCN(Cc4nc5ccccc5c(=O)[nH]4)CC3)c2)cc1` [Compound L-170], the half-life at 0.19 mg/ml came out at 7.5 min in data set [2] and 280 min in data set [3].
For `CCOc1ccc(C(=O)Oc2cccc(N3CCN(Cc4nc5ccccc5c(=O)[nH]4)CC3)c2)cc1` [Compound L-173], the half-life at 0.19 mg/ml in data set [2] is 16.5 min; in data set [3], over 1000 min. For the same compound, the “rate of hydrolysis (in words)” value in data set [3] was “considerably slower hydrolysis”.
For the compound `COc1ccccc1C(=O)Oc1cccc(N2CCN(Cc3nc4ccccc4c(=O)[nH]3)CC2)c1` [Compound L-174], the half-life at 0.19 mg/ml in data set [2] was determined as 52 min; in data set [3], 455 min. In addition, in data set [3], the “rate of hydrolysis (in words)” value is listed as “slower hydrolysis than exhibited by the corresponding non-substituted aryl”.
`Cc1ccccc1C(=O)Oc1cccc(N2CCN(Cc3nc4ccccc4c(=O)[nH]3)CC2)c1` [Compound L-199]: the half-life at 0.19 mg/ml in data set [2] is 44 min; in data set [3] it was over 1000 min.
For `O=C(Oc1cccc(N2CCN(Cc3nc4ccccc4c(=O)[nH]3)CC2)c1)c1ccccc1` [Compound L-207], the “solubility in organic solvents” value in data set [4] (dimethylformamide, dimethyl sulfoxide, tetrahydrofuran, chloroform, dichloromethane, HCl in diethyl ether) is “soluble”. In addition, in data set [4] (water), the solubility in water result is recorded as “non-soluble”. The half-life at 0.19 mg/ml came to 29 min in data set [2] and 134 min in data set [3]. Besides, the “% L-207 (hydrolysis of L-207 to R-55)” value in data set [2] (0 minutes) is 99.49%; in data set [2] (15 minutes), 74.08%; in data set [2] (30 minutes), 47.73%; in data set [2] (60 minutes), 6.61%; in data set [2] (90 minutes), 0.76%; in data set [2] (120 minutes) it was 0.41%. For the same compound, the “% L-207 (hydrolysis of L-207 to R-55)” value in data set [3] (10 minutes) is on record as 97.54%; in data set [3] (30 minutes), 89.21%; in data set [3] (60 minutes) it was 77.11%; in data set [3] (90 minutes), 64.67%; in data set [3] (120 minutes), 52.91%. Besides, the “rate of hydrolysis (in words)” value in data set [3] was “relatively rapid hydrolysis”.
Regarding `O=C(Oc1cccc(N2CCN(Cc3nc4ccccc4c(=O)[nH]3)CC2)c1)c1ccc(F)cc1` [Compound L-209], the half-life at 0.19 mg/ml in data set [2] is 35 min. In data set [3], the half-life at 0.19 mg/ml worked out at 470 min and the “rate of hydrolysis (in words)” value was “slower hydrolysis than exhibited by the corresponding non-substituted aryl”.
For the compound `O=c1[nH]c(CN2CCN(c3ccc(O)cc3)CC2)nc2ccccc12` [Compound L-221, 2-((4-(4-hydroxyphenyl)piperazin-1-yl)methyl)quinazolin-4-one], the IC50 in data set [5] is about 30 µM.
